Assay results from patent US8846570B2, “Herbicidal compositions comprising 4-amino-3-chloro-5-fluoro-6-(4-chloro-2-fluoro-3-methoxyphenyl)pyridine-2-carboxylic acid or a derivative thereof and microtubule inhibiting herbicides” (Dow AgroSciences LLC, priority 2012, dated 2014).

How the values were obtained:
Format in all cases: in vivo
[1] = tested on: Cyperus difformis L. (CYPDI); experiment: Postemergence foliar-applied, direct seeded rice, greenhouse: visual weed control; conditions: 20 DAA; 5.3 g ae/ha
Protocol: (§1) Seeds or nutlets of the desired test plant species were planted in a soil matrix prepared by mixing a loam or sandy loam soil (e.g., 28.6 percent silt, 18.8 percent clay, and 52.6 percent sand, with a pH of about 5.8 and an organic matter content of about 1.8 percent) and calcareous grit in an 80 to 20 ratio. The soil matrix was contained in plastic pots with a volume of 1 quart and a surface area of 83.6 cm^2. […] The plants were grown for 8-22 days in a greenhouse with an approximate 14 h photoperiod which was maintained at about 29° C. during the day and 26° C. during the night. Nutrients (Peters Excel® 15-5-15 5-Ca 2-Mg and iron chelate) were applied in the irrigation solution as needed and water was added on a regular basis. Supplemental lighting was provided with overhead metal halide 1000-Watt lamps as necessary. The plants were employed for testing when they reached the first through fourth true leaf stage.
(§2) Forms of compound A were applied on an acid equivalent basis.
(§3) For treatments comprised of formulated compounds, measured amounts of compounds were placed individually in 25 mL glass vials and diluted in a volume of 1.25% (v/v) Agri-Dex® crop oil concentrated to obtain 12× stock solutions. […] Application solutions were prepared by adding an appropriate amount of each stock solution (e.g., 1 mL) and diluted to the appropriate final concentrations with the addition of 10 mL of an aqueous mixture of 1.25% (v/v) crop oil concentrate so that the final spray solutions contained 1.25+/−0.05% (v/v) crop oil concentrate.
(§4) As required, additional water and/or 97:3 v/v acetone/DMSO was added to individual application solutions so that the final acetone and DMSO concentrations of the application solutions being compared were 8.1% and 0.25%, respectively.
(§5) All stock solutions and applications solutions were visually inspected for compound compatibility prior to application. Spray solutions were applied to the plant material with an overhead Mandel track sprayer equipped with a 8002E nozzles calibrated to deliver 187 L/ha over an application area of 0.503 m^2 at a spray height of 18 to 20 inches (46 to 50 cm) above average plant canopy height. Control plants were sprayed in the same manner with the solvent blank.
(§6) The treated plants and control plants were placed in a greenhouse as described above and watered by sub-irrigation to prevent wash-off of the test compounds. After approximately 3 weeks, the condition of the test plants as compared with that of the untreated plants was determined visually and scored on a scale of 0 to 100 percent where 0 corresponds to no injury or growth inhibition and 100 corresponds to complete kill.
(§7) Colby's equation was used to determine the herbicidal effects expected from the mixtures (Colby, S. R. 1967. Calculation of the synergistic and antagonistic response of herbicide combinations. Weeds 15:20-22.).
(§8) The following equation was used to calculate the expected activity of mixtures containing two active ingredients, A and B: Expected=A+B−(A×B/100)

[2] = tested on: Schoenoplectus juncoides (Roxb.) Palla (SCPJU); experiment: as above; conditions: 20 DAA; 5.3 g ae/ha
Protocol: as §1, §2, §3, §4, §5, §6, §7, §8

[3] = tested on: Cyperus esculentus L. (CYPES); experiment: as above; conditions: 20 DAA
Protocol: as §1, §2, §3, §4, §5, §6, §7, §8

[4] = tested on: Amaranthus retroflexus L. (AMARE); experiment: Postemergence foliar-applied, cereal crops, greenhouse: visual weed control; conditions: 21 DAA
Protocol: (§9) Seeds of the desired test plant species were planted in Sun Gro MetroMix® 306 planting mixture, which typically has a pH of 6.0 to 6.8 and an organic matter content of about 30 percent, in plastic pots with a surface area of 103.2 square centimeters (cm^2). When required to ensure good germination and healthy plants, a fungicide treatment and/or other chemical or physical treatment was applied. The plants were grown for 7-36 days in a greenhouse with an approximate 14 hour photoperiod which was maintained at about 18° C. during the day and about 17° C. during the night. Nutrients and water were added on a regular basis and supplemental lighting was provided with overhead metal halide 1000-Watt lamps as necessary. The plants were employed for testing when they reached the second or third true leaf stage.
(§10) Treatments consisted of the benzyl ester of 4-amino-3-chloro-5-fluoro-6-(4-chloro-2-fluoro-3-methoxy-phenyl)pyridine-2-carboxylic acid (Compound A), formulated as an SC, a second cereal herbicide alone and then both in combination.
(§11) Other herbicidal components were applied on an active ingredient basis and included microtubule-inhibiting herbicides.
(§12) Measured aliquots of benzyl ester of 4-amino-3-chloro-5-fluoro-6-(4-chloro-2-fluoro-3-methoxy-phenyl)pyridine-2-carboxylic acid (Compound A) were placed in 25 milliliter (mL) glass vials and diluted in a volume of 1.25% (v/v) Agri-Dex® crop oil concentrate to obtain stock solutions. Compound requirements are based upon a 12 mL application volume at a rate of 187 liters per hectare (L/ha). Spray solutions of the second cereal herbicide and experimental compound mixtures were prepared by adding the stock solutions to the appropriate amount of dilution solution to form 12 mL spray solution with active ingredients in two- and three-way combinations. Formulated compounds were applied to the plant material with an overhead Mandel track sprayer equipped with an 8002E nozzle calibrated to deliver 187 L/ha over an application area of 0.503 square meters (m^2) at a spray height of 18 inches (46 cm) above average plant canopy. Control plants were sprayed in the same manner with the solvent blank.
as §6, with “20-22 days,” for “approximately 3 weeks,”, “control” for “untreated”, “injury” for “injury or growth inhibition”
as §7, §8

[5] = tested on: Stellaria media (L.) Vill. (STEME); experiment: as above; conditions: 21 DAA
Protocol: as §9, §10, §11, §12
as §6, with “20-22 days,” for “approximately 3 weeks,”, “control” for “untreated”, “injury” for “injury or growth inhibition”
as §7, §8

[6] = tested on: Cirsium arvense (L.) Scop. (CIRAR); experiment: as above; conditions: 21 DAA
Protocol: as §9, §10, §11, §12
as §6, with “20-22 days,” for “approximately 3 weeks,”, “control” for “untreated”, “injury” for “injury or growth inhibition”
as §7, §8

[7] = tested on: Chenopodium album L. (CHEAL); experiment: as above; conditions: 21 DAA
Protocol: as §9, §10, §11, §12
as §6, with “20-22 days,” for “approximately 3 weeks,”, “control” for “untreated”, “injury” for “injury or growth inhibition”
as §7, §8

[8] = tested on: Papaver rhoeas L. (PAPRH); experiment: as above; conditions: 21 DAA
Protocol: as §9, §10, §11, §12
as §6, with “20-22 days,” for “approximately 3 weeks,”, “control” for “untreated”, “injury” for “injury or growth inhibition”
as §7, §8

[9] = tested on: Kochia scoparia (L.) Schrad. (KCHSC); experiment: as above; conditions: 21 DAA
Protocol: as §9, §10, §11, §12
as §6, with “20-22 days,” for “approximately 3 weeks,”, “control” for “untreated”, “injury” for “injury or growth inhibition”
as §7, §8

[10] = tested on: Lamium purpureum L. (LAMPU); experiment: as above; conditions: 21 DAA
Protocol: as §9, §10, §11, §12
as §6, with “20-22 days,” for “approximately 3 weeks,”, “control” for “untreated”, “injury” for “injury or growth inhibition”
as §7, §8

[11] = tested on: Sinapis arvensis L. (SINAR); experiment: as above; conditions: 21 DAA
Protocol: as §9, §10, §11, §12
as §6, with “20-22 days,” for “approximately 3 weeks,”, “control” for “untreated”, “injury” for “injury or growth inhibition”
as §7, §8

## COc1c(Cl)ccc(-c2nc(C(=O)O)c(Cl)c(N)c2F)c1F [Compound A Acid, 4-amino-3-chloro-6-(4-chloro-2-fluoro-3-methoxyphenyl)-5-fluoropyridine-2-carboxylic acid]
[1]
  Visual Weed Control (%) Obs: 80%
[2]
  Visual Weed Control (%) Obs: 25%
[3]; 5.3 g ae/ha
  Visual Weed Control (%) Obs: 0%
[3]; 10.6 g ae/ha
  Visual Weed Control (%) Obs: 90%

## COc1c(Cl)ccc(-c2nc(C(=O)OCc3ccccc3)c(Cl)c(N)c2F)c1F [Compound A Benzyl Ester, benzyl ester of 4-amino-3-chloro-5-fluoro-6-(4-chloro-2-fluoro-3-methoxy-phenyl)pyridine-2-carboxylic acid]
[4]; 2.5 g ai/ha
  Visual Weed Control (%) Obs: 20%
[4]; 5 g ai/ha
  Visual Weed Control (%) Obs: 38%
[5]; 2.5 g ai/ha
  Visual Weed Control (%) Obs: 25%
[5]; 5 g ai/ha
  Visual Weed Control (%) Obs: 25%
[5]; 10 g ai/ha
  Visual Weed Control (%) Obs: 27%
[6]; 2.5 g ai/ha
  Visual Weed Control (%) Obs: 48%
[6]; 5 g ai/ha
  Visual Weed Control (%) Obs: 39%
[6]; 10 g ai/ha
  Visual Weed Control (%) Obs: 60%
[7]; 2.5 g ai/ha
  Visual Weed Control (%) Obs: 50%
[7]; 5 g ai/ha
  Visual Weed Control (%) Obs: 58%
[8]; 2.5 g ai/ha
  Visual Weed Control (%) Obs: 48%
[8]; 5 g ai/ha
  Visual Weed Control (%) Obs: 28%
[8]; 10 g ai/ha
  Visual Weed Control (%) Obs: 35%
[9]; 2.5 g ai/ha
  Visual Weed Control (%) Obs: 20%
[9]; 5 g ai/ha
  Visual Weed Control (%) Obs: 41%
[9]; 10 g ai/ha
  Visual Weed Control (%) Obs: 62%
[10]; 2.5 g ai/ha
  Visual Weed Control (%) Obs: 80%
[10]; 5 g ai/ha
  Visual Weed Control (%) Obs: 86%
[10]; 10 g ai/ha
  Visual Weed Control (%) Obs: 94%
[11]; 2.5 g ai/ha
  Visual Weed Control (%) Obs: 70%
[11]; 5 g ai/ha
  Visual Weed Control (%) Obs: 73%

## CCC(CC)Nc1c([N+](=O)[O-])cc(C)c(C)c1[N+](=O)[O-] [Pendimethalin, N-(1-ethylpropyl)-3,4-dimethyl-2,6-dinitrobenzenamine, reference compound]
[4]; 150 g ai/ha
  Visual Weed Control (%) Obs: 3%
[4]; 300 g ai/ha
  Visual Weed Control (%) Obs: 5%
[5]; 150 g ai/ha
  Visual Weed Control (%) Obs: 3%
[5]; 300 g ai/ha
  Visual Weed Control (%) Obs: 5%
[5]; 600 g ai/ha
  Visual Weed Control (%) Obs: 17%
[6]; 150 g ai/ha
  Visual Weed Control (%) Obs: 10%
[6]; 300 g ai/ha
  Visual Weed Control (%) Obs: 10%
[6]; 600 g ai/ha
  Visual Weed Control (%) Obs: 10%
[7]; 150 g ai/ha
  Visual Weed Control (%) Obs: 0%
[7]; 300 g ai/ha
  Visual Weed Control (%) Obs: 0%
[8]; 150 g ai/ha
  Visual Weed Control (%) Obs: 18%
[8]; 300 g ai/ha
  Visual Weed Control (%) Obs: 38%
[8]; 600 g ai/ha
  Visual Weed Control (%) Obs: 75%
[9]; 150 g ai/ha
  Visual Weed Control (%) Obs: 10%
[9]; 300 g ai/ha
  Visual Weed Control (%) Obs: 10%
[9]; 600 g ai/ha
  Visual Weed Control (%) Obs: 57%
[10]; 150 g ai/ha
  Visual Weed Control (%) Obs: 0%
[10]; 300 g ai/ha
  Visual Weed Control (%) Obs: 25%
[10]; 600 g ai/ha
  Visual Weed Control (%) Obs: 53%
[11]; 150 g ai/ha
  Visual Weed Control (%) Obs: 3%
[11]; 300 g ai/ha
  Visual Weed Control (%) Obs: 5%
